# According to patent US9139543B2, “Thiazole compounds and uses thereof” (Institute of Pharmacology and Toxicology Academy of …, priority 2012, dated 2015):
# Tested on: myocardial cells
# Assay: Activity of preventing cardiomyocyte apoptosis induced by TM (MTT cell survival)
# Type: cell-based, Neonatal Wistar rats
# Conditions: Cardiomyocyte, primary neonatal rat myocardial cells, compound 30 min before TM 0.5 μg/ml, 48 h, read-out: Protection effects against cardiomyocyte apoptosis induced by TM, EC50
# Procedure: Neonatal Wistar rats newborn within 24 h, not confined to female or male (provided by the Center of Laboratory Animals, Academy of Military Medical Science of the PLA, animal certificate No.: SCXK-( ? ) 2007-004). High-sugar DMEM culture medium, trypsinase, and type II collagenase purchased from Gibco Company; fetal bovine serum (FBS) purchased from Beijing Yuanhengshengma Biological Technology Institute; 5-bromo-2-deoxyuridine (5-Brdu), tunicamycin (TM) purchased from Sigma Company; thiazolyl blue (MTT), dimethyl sulfoxide (DMSO) which is the product of Amresco; other chemical agents were all analytical pure and made in China. Universal Microplate ReaderEL800 type of ELIASA was a product of BIO-TEK Company of US.
# neonatal Wistar rats newborn within 24 h were used, skin of abdomen was sterilized with iodine and alcohol. Tissue of ventricular apex was taken out with aseptic operation, cut into pieces with 1 mm^3 size, added with suitable amount of 0.125% pancretin and 0.1% collagenase II (final concentration was respectively 0.1% and 0.02%), mechanical shaking in 37° C. water-bath, 10 min each time, digested repeatedly until the tissue pieces were completely digested. The prepared myocardial cell suspension was inoculated in a 75 cm^2 culture flask. Non-myocardial cells were removed by differential adhesion method. The myocardial cell density was adjusted with DMEM culture medium containing 10% FBS, inoculated to a 96-well plate in an amount of 10^4/ml, placed in 5% CO2 incubator at 37° C. for 24 h for primary culture. Half medium was replaced after 24 h, a culture medium containing 0.1% 5-Brdu (5-bromo-2-deoxyuridine) was replenished to inhibit the growth of non-myocardial cells. The medium was replaced once per 48 h for primary culture.
# Measurement of compound activity: myocardial cells were cultured for 4 days, respectively treated with compound in different concentrations (0.3 μM, 1 μM, 3 μM) for 30 min, then added with TM to final concentration of 0.5 μg/ml (TM group with final concentration of 0.5 μg/ml and solvent control group (DMSO) were set at the same time), and placed in 37° C., 5% CO2 incubator and cultured for 48 h, then each well was added with 10 μl of MTT (5 mg/ml) and continuously incubated for 4 h, finally each well was added with 100 μL of 10% SDS, incubated at 37° C., 5% CO2 for 24 h, so that MTT crystal was completely dissolved. ELISA was used to measure light absorbance of each well under 550 nm wavelength, in which TM and the compound of the present invention were formulated with DMSO. The formula is: cell survival rate (%)=OD value of administration group/average OD value of solvent control well×100%. The results were expressed in x±SD, and EC50 values (Table 1) were calculated with software, so that the effect of compound of the present invention preventing cardiomyocyte apoptosis induced by TM was determined.
row,SMILES,EC50 [µM]
1,COc1ccc(-c2nc(NC(NC(=O)/C=C/c3ccccc3)C(Cl)(Cl)Cl)sc2-c2ccccc2)cc1 (stereo not shown) [Example 1],100
2,O=C(/C=C/c1ccccc1)NC(Nc1nc(-c2ccccc2)c(-c2ccccc2)s1)C(Cl)(Cl)Cl (stereo not shown) [Example 2],47
3,"COc1ccc(-c2csc(NC(NC(=O)/C=C/c3ccccc3)C(Cl)(Cl)Cl)n2)cc1 (stereo not shown) [Example 3, (2E)-3-(2-phenyl)-N-[1-(4-methoxyphenyl-2-thiazolyl)-2,2,2-trichloroethyl]-2-acrylamide]",61
4,"O=C(/C=C/c1ccccc1)NC(Nc1nc(-c2ccc(F)cc2F)cs1)C(Cl)(Cl)Cl (stereo not shown) [Example 4, (2E)-3-(2-phenyl)-N-[1-(2,4-difluorophenyl-2-thiazolyl)-2,2,2-trichloroethyl]-2-acrylamide]",0.8
5,"O=C(/C=C/c1ccccc1)NC(Nc1nc(-c2ccc(Cl)cc2)cs1)C(Cl)(Cl)Cl (stereo not shown) [Example 5, (2E)-3-(2-phenyl)-N-[1-(4-chlorophenyl-2-thiazolyl)-2,2,2-trichloroethyl]-2-acrylamide]",0.3
6,O=C(/C=C/c1ccccc1)NC(Nc1nc(-c2ccccc2)cs1)C(Cl)(Cl)Cl (stereo not shown) [Example 6],30

# Same assay, conditions: primary neonatal rat myocardial cells, TM 0.5 μg/ml
row,SMILES,Protection effects against cardiomyocyte apoptosis induced by TM (in words)
1,"O=C(/C=C/c1ccccc1)NC(Nc1nc(-c2ccc(Cl)cc2)cs1)C(Cl)(Cl)Cl (stereo not shown) [Example 5, (2E)-3-(2-phenyl)-N-[1-(4-chlorophenyl-2-thiazolyl)-2,2,2-trichloroethyl]-2-acrylamide]",good protection effects
